From patent publication US20260317344A1, “EGFR INHIBITORS FOR TREATING DISEASE” (BLOSSOMHILL THERAPEUTICS, INC., priority 2023, published 2026)

Legend:
EGFR (D746-750/C797S) = EGFR (D746-750/C797S) (Homo sapiens, UniProt P00533, C797S/DEL746-750); assay: HotSpot radiometric kinase assay, inhibition of EGFR 746-750/C797S mutant; type: biochemical; details: 33P ATP, room temperature, 120 m
In short: (§1)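 Radiometric filter-binding format: ATP plus 33P-ATP ([…]) was added about 20 min after compound to kinase and substrate in HEPES pH 7.5 buffer with Mg2+, EGTA, Brij35, BSA, vanadate, DTT and 1% DMSO. After 120 min at room temperature, reactions were spotted on P81 paper and washed in phosphoric acid; IC50 values fitted.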

[1] = test system: BaF3 cells with engineered EGFR L858R/C797S; assay: 3-Day CellTiter Glo (CTG) cell proliferation assay, BaF3 EGFR L858R/C797S; type: cell-based; details: Mus musculus, 3-day CTG proliferation, 72 hours
In short: (§2)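 Viability after 72 h compound exposure (9 concentrations, 37° C, 5% CO2) was measured as ATP luminescence with CellTiter-Glo 2.0 in EGFR-mutant-engineered BaF3 cells plated at one thousand cells per well. IC50 values obtained by curve fitting.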

[2] = target: T1, pEGFR, PC-9 cells (d746-750 EGFR) (Homo sapiens, UniProt P00533, DEL746-750); assay: Cellular EGFR phosphorylation assay (LANCE Ultra TR-FRET) in PC-9 cells; type: cell-based; details: 4 hours at 37° C., read-out: PC-9 pEGFR IC50
T1 construct: pEGFR (Tyr1068) TR-FRET
In short: (§3)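 pEGFR Tyr1068 TR-FRET readout, lysates after 4 h compound exposure (37 °C, 5% CO2); 9-dose 3-fold series. A431 only: EGF 40 ng/mL for last 10 min. IC50 from curve fit.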

[3] = test system: BaF3 cells with engineered EGFR L858R/T790M/C797S; assay: 3-Day CellTiter Glo (CTG) cell proliferation assay, BaF3 EGFR L858R/T790M/C797S; type: cell-based; details: Mus musculus, 3-day CTG proliferation, 72 hours
In short: as §2

NCI-H1975 cells = assay: 5-Day CellTiter Glo (CTG) cell proliferation assay, NCI-H1975; type: cell-based; details: Homo sapiens; NCI-H1975 cells (L858R/T790M EGFR), 5-day CTG proliferation, 120 hours; read-out: H1975 IC50
In short: (§4)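 Proliferation of EGFR-driven NSCLC cells was scored as CellTiter-Glo 2.0 luminescence after a 5-day (120 h) incubation with compounds in 9 doses. IC50 values came from the dose-response curves.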

EGFR (D746-750) = EGFR (D746-750) (Homo sapiens, UniProt P00533, DEL746-750); assay: HotSpot radiometric kinase assay, inhibition of EGFR 746-750 mutant; type: biochemical; details: 33P ATP, room temperature, 120 m
In short: as §1

[4] = target: T2, pEGFR, A431 cells (wildtype EGFR) (Homo sapiens, UniProt P00533); assay: Cellular EGFR phosphorylation assay (LANCE Ultra TR-FRET) in A431 cells; type: cell-based; details: 4 hours at 37° C., 40 ng/mL EGF for the final 10 minutes, read-out: A431 pEGFR IC50
T2 construct: pEGFR (Tyr1068) TR-FRET
In short: as §3

EGFR (L858R/T790M/C797S) = EGFR (L858R/T790M/C797S) (Homo sapiens, UniProt P00533, C797S/L858R/T790M); assay: HotSpot radiometric kinase assay, inhibition of EGFR L858R/T790M/C797S mutant; type: biochemical; details: 33P ATP, room temperature, 120 m
In short: as §1

EGFR (D770_N771insNPG) = EGFR (D770_N771insNPG) (Homo sapiens, UniProt P00533, INS770NPG); assay: HotSpot radiometric kinase assay, inhibition of EGFR (D770_N771insNPG) mutant; type: biochemical; details: 33P ATP, room temperature, 120 m
In short: as §1

[5] = test system: BaF3 cells with engineered EGFR d746-750/T790M; assay: 3-Day CellTiter Glo (CTG) cell proliferation assay, BaF3 EGFR d746-750/T790M; type: cell-based; details: Mus musculus; BaF3 EGFR d746-750/T790M cells, 3-day CTG proliferation, 72 hours
In short: as §2

HCC827 cells = assay: 5-Day CellTiter Glo (CTG) cell proliferation assay, HCC827; type: cell-based; details: Homo sapiens; HCC827 cells (d746-750 EGFR), 5-day CTG proliferation, 120 hours; read-out: HCC827 IC50
In short: as §4

PC-9 cells = assay: 5-Day CellTiter Glo (CTG) cell proliferation assay, PC-9; type: cell-based; details: Homo sapiens; PC-9 cells (d746-750 EGFR), 5-day CTG proliferation, 120 hours; read-out: PC-9 IC50
In short: as §4

[6] = target: T3, pEGFR, NCI-H1975 cells (L858R/T790M EGFR) (Homo sapiens, UniProt P00533, L858R/T790M); assay: Cellular EGFR phosphorylation assay (LANCE Ultra TR-FRET) in NCI-H1975 cells; type: cell-based; details: 4 hours at 37° C., read-out: H1975 pEGFR IC50
T3 construct: pEGFR (Tyr1068) TR-FRET
In short: as §3

T3 sequence (P00533 25-1210 T790M/L858R): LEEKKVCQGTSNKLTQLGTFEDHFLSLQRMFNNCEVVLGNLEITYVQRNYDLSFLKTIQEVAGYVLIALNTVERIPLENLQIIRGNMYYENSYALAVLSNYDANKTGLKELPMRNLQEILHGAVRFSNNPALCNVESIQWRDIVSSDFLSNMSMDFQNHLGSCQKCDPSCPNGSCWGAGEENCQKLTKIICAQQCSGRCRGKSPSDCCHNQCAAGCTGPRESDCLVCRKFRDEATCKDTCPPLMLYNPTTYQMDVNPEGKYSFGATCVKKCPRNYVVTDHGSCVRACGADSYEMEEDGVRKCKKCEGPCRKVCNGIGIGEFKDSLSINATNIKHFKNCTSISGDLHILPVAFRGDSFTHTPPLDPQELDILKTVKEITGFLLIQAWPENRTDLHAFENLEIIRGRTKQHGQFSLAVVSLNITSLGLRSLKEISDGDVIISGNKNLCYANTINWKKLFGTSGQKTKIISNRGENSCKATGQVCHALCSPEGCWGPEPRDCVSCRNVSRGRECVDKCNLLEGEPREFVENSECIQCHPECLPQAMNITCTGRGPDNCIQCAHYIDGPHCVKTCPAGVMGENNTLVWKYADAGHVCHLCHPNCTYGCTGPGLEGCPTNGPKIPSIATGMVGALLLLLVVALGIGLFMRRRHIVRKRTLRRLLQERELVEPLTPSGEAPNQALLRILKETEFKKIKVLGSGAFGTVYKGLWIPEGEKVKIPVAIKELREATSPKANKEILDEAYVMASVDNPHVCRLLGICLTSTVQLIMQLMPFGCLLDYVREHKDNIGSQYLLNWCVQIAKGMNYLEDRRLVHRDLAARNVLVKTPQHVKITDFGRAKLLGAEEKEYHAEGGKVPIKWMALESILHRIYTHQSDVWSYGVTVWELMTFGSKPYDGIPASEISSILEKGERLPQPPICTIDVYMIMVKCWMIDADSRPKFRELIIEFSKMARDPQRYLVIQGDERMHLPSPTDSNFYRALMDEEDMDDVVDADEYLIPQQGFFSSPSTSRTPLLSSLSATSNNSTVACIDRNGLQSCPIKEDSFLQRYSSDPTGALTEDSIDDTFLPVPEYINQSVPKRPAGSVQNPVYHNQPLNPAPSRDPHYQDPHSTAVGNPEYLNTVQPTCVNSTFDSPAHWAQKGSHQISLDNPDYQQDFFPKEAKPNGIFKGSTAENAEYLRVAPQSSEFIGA
T2 sequence (P00533 25-1210): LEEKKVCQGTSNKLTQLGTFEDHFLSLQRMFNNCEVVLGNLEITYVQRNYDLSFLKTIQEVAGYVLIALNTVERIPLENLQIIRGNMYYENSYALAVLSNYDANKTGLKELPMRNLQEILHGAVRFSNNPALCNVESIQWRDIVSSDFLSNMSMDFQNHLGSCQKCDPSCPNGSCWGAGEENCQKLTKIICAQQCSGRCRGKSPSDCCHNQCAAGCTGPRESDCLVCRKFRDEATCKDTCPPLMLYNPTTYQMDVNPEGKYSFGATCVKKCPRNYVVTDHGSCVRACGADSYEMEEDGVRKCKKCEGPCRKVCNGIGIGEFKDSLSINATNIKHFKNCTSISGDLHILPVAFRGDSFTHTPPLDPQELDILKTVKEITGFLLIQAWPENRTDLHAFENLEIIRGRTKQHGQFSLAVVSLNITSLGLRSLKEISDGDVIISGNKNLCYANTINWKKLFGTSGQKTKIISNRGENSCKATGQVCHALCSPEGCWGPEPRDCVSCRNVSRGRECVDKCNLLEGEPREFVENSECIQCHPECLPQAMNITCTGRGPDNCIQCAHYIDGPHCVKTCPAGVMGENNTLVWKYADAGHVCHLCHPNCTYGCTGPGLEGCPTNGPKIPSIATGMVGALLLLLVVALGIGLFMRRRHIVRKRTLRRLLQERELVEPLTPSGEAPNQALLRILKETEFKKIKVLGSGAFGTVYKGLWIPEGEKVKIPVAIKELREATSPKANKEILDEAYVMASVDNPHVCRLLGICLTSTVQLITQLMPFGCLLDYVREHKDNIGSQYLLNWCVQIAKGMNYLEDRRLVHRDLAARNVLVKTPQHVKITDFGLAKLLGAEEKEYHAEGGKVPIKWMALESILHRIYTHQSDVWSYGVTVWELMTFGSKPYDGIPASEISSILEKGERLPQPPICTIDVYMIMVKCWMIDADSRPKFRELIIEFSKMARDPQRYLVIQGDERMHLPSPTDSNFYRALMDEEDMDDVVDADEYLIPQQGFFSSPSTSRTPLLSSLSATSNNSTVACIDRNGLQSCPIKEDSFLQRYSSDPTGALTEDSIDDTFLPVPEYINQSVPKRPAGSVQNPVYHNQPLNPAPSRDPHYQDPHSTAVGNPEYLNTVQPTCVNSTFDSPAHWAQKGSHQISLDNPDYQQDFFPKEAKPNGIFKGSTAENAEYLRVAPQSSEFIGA
Sequence of EGFR (D770_N771insNPG) (P00533 with tags, fused parts or gaps INS770NPG limits assumed): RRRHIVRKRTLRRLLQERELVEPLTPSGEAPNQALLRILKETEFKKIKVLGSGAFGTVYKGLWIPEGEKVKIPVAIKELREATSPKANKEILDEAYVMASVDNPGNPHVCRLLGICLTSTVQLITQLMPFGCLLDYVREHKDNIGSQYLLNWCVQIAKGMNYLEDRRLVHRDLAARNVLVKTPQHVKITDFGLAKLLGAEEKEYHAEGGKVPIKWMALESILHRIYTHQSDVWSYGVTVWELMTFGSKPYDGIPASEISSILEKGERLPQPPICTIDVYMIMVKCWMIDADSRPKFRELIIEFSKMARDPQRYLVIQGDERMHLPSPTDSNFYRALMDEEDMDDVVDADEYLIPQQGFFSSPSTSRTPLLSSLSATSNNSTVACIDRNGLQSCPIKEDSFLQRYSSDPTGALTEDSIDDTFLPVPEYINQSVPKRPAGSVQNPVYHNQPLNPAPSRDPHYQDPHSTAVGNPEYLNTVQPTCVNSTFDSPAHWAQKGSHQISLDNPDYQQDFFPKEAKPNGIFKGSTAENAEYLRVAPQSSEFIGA
Sequence of EGFR (L858R/T790M/C797S) (P00533 25-1210 T790M/C797S/L858R): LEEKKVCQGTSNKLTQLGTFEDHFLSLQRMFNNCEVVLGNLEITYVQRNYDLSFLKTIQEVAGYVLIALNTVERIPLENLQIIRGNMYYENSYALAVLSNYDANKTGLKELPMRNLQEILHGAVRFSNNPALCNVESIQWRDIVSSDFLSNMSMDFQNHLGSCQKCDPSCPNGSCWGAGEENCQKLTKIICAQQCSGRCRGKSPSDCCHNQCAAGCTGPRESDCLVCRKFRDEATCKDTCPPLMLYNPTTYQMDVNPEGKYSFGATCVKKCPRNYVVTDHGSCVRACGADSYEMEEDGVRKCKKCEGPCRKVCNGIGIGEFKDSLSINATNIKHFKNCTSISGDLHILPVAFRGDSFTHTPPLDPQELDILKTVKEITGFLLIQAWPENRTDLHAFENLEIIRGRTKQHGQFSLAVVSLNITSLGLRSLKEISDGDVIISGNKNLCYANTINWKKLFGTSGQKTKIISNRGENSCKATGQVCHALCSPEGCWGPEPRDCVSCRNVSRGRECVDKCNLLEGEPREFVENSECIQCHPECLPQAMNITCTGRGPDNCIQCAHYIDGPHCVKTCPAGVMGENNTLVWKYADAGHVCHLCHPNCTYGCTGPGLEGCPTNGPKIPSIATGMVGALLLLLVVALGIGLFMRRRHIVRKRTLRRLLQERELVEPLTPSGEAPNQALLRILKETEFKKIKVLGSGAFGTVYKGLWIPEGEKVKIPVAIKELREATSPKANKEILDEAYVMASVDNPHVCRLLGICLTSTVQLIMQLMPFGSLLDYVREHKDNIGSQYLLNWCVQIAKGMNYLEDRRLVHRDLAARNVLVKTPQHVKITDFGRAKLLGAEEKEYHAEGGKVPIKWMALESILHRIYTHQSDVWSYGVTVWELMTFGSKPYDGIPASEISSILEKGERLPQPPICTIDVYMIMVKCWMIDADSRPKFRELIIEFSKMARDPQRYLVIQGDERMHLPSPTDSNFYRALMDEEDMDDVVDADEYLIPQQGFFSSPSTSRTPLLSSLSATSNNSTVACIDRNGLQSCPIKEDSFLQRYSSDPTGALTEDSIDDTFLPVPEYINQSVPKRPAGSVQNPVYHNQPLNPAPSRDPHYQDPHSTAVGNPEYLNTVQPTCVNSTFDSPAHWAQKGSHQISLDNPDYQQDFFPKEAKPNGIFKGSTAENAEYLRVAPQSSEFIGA

| SMILES | IC50 (EGFR (D746-750/C797S)) [nM] | IC50 [1] [nM] | IC50 [2] [nM] | IC50 [3] [nM] | IC50 (NCI-H1975 cells) [nM] | IC50 (EGFR (D746-750)) [nM] | IC50 [4] [nM] | IC50 (EGFR (L858R/T790M/C797S)) [nM] | IC50 (EGFR (D770_N771insNPG)) [nM] | IC50 [5] [nM] | IC50 (HCC827 cells) [nM] | IC50 (PC-9 cells) [nM] | IC50 [6] [nM] |
| --- | --- | --- | --- | --- | --- | --- | --- | --- | --- | --- | --- | --- | --- |
| Cc1nn(C)c2c1-c1cc3c(n[nH]c3cn1)/C=C/c1c(OCC#N)nn([C@@H](C)CO)c1CN(C)C[C@H](C)O2 [Ex. 53, {[(10S,17E)-14-[(2S)-1-hydroxypropan-2-yl]-6,8,10,12-tetramethyl-2,10,11,12,13,14-hexahydro-8H-5,3-(azenometheno)tripyrazolo[3,4-f:3′,4′-j:4″,3″-n][1,4]oxazacyclopentadecin-16-yl]oxy}acetonitrile] | 1.12 | 0.18 | 2.57 | 1.57 | 15.7 | 0.37 | 21 | 0.67 | 0.45 | 4.31 | 1.1 | 2.94 | 8.74 |
| CCOc1nn(CCO)c2c1/C=C/c1n[nH]c3c(C)nc(cc13)-c1cnn(C)c1O[C@H](C)CN(C)C2 [Ex. 38, 2-[(10R,17E)-16-ethoxy-8,10,12,20-tetramethyl-2,8,10,11,12,13-hexahydro-14H-5,3-(azenometheno)tripyrazolo[3,4-f:3′,4′-j:4″,3″-n][1,4]oxazacyclopentadecin-14-yl]ethan-1-ol] | 0.54 | 6.5 | 18.8 | 4.01 | 27.1 | 0.24 | 47.5 | 0.25 | 1.9 | 22.1 | 7.9 | 48.8 | 3.11 |
| CCOc1nn(CCO)c2c1/C=C/c1n[nH]c3cnc(cc13)-c1c(C)nn(C)c1O[C@H](C)[C@H]1CCCN1C2 [Ex. 33, 2-[(8aR,9R,19E)-1-ethoxy-9,11,13-trimethyl-7,8,8a,9,11,17-hexahydro-6H-14,16-(azenometheno)tripyrazolo[3,4-f:3′,4′-j:4″,3″-n]pyrrolo[2,1-c][1,4]oxazacyclopentadecin-3(4H)-yl]ethan-1-ol] | 0.66 | 0.11 | 1.5 | 1.6 | 1.1 | 0.15 | 17.6 | 0.31 | 0.17 | 1.07 | 0.44 | 0.58 | 2.38 |
| CCOc1nn(CCO)c2c1/C=C/c1n[nH]c3cnc(cc13)-c1c(CC)nn(C)c1O[C@@H](C)CN(CC)C2 [Ex. 74, 2-[(10S,17E)-16-ethoxy-6,12-diethyl-8,10-dimethyl-2,8,10,11,12,13-hexahydro-14H-5,3-(azenometheno)tripyrazolo[3,4-f:3′,4′-j:4″,3″-n][1,4]oxazacyclopentadecin-14-yl]ethan-1-ol] | 1.83 | 0.04 | 1.54 | 1.34 | 79.9 | 0.55 | 8.81 | 1.5 | 0.66 | 6.61 | 0.72 | 0.68 | 5.16 |
| CCOc1nn([C@@H](C)CO)c2c1/C=C/c1n[nH]c3cnc(cc13)-c1c(C)nn(C)c1O[C@H](C)CN(C)C2 [Ex. 35, (2S)-2-[(10R,17E)-16-ethoxy-6,8,10,12-tetramethyl-2,8,10,11,12,13-hexahydro-14H-5,3-(azenometheno)tripyrazolo[3,4-f:3′,4′-j:4″,3″-n][1,4]oxazacyclopentadecin-14-yl]propan-1-ol] | 0.66 | 0.14 | 1.56 | 0.89 | 3.05 | 0.22 | 15.1 | 0.41 | 0.24 | 0.46 | 0.51 | 2.56 | 1.25 |
| CCOc1nn(CCO)c2c1/C=C/c1n[nH]c3cnc(cc13)-c1cnn(C)c1O[C@@H](C)CN(C1CC1)C2 [Ex. 30, 2-[(10S,17E)-12-cyclopropyl-16-ethoxy-8,10-dimethyl-2,8,10,11,12,13-hexahydro-14H-5,3-(azenometheno)tripyrazolo[3,4-f:3,4′-j:4″,3″-n][1,4]oxazacyclopentadecin-14-yl]ethan-1-ol] | 0.49 | 0.14 | 3.64 | 1.02 | 1.96 | 0.15 | 14 | 0.19 | 0.15 | 0.65 | 0.5 | 4.44 | 3.31 |
| CCOc1nn(CCO)c2c1/C=C/c1n[nH]c3cnc(cc13)-c1c(C)nn(C)c1O[C@@H](C)[C@H]1CCCN1C2 [Ex. 32, 2-[(8aR,9S,19E)-1-ethoxy-9,11,13-trimethyl-7,8,8a,9,11,17-hexahydro-6H-14,16-(azenometheno)tripyrazolo[3,4-f:3′,4′-j:4″,3″-n]pyrrolo[2,1-c][1,4]oxazacyclopentadecin-3(4H)-yl]ethan-1-ol] | 1.09 | 0.07 | 1.08 | 0.87 | 1.39 | 0.33 | 9.53 | 0.77 | 0.63 | 0.48 | 0.25 | 0.54 | 1.48 |
| Cc1nn([C@@H](C)CO)c2c1/C=C/c1n[nH]c3c(C)nc(cc13)-c1c(C)nn(C)c1O[C@@H](C)CN(C)C2 [Ex. 57, (2S)-2-[(10S,17E)-6,8,10,12,16,20-hexamethyl-2,8,10,11,12,13-hexahydro-14H-5,3-(azenometheno)tripyrazolo[3,4-f:3′,4′-j:4″,3″-n][1,4]oxazacyclopentadecin-14-yl]propan-1-ol] | 1.38 | 0.69 | 11.3 | 1.77 | 68.2 | 0.8 | 26.1 | 0.86 | 4.83 | 61.8 | 8.59 | 21.9 | 10.5 |
| CCOc1nn(CCO)c2c1/C=C/c1n[nH]c3cnc(cc13)-c1c(C)nn(C)c1OC[C@H](C)N(C(C)C)C2 [Ex. 2, 2-[(11S,17E)-16-ethoxy-6,8,11-trimethyl-12-(propan-2-yl)-2,8,10,11,12,13-hexahydro-14H-5,3-(azenometheno)tripyrazolo[3,4-f:3′,4′-j:4″,3″-n][1,4]oxazacyclopentadecin-14-yl]ethan-1-ol] | 0.63 | 0.13 | 1.35 | 0.9 | 8.82 | 0.22 | 9.27 | 0.79 | 0.71 | 0.71 | 0.39 | 1.81 | 1.34 |
| Cc1nn(C)c2c1-c1cc3c(n[nH]c3cn1)/C=C/c1c(OCC#N)nn(CCO)c1CN1CCC[C@@H]1C(C)O2 (single isomer, unassigned) [Ex. 50] | 0.68 | 0.12 | 1.07 | 1.14 | 5.55 | 0.19 | 19.3 | 0.39 | 0.21 | 2.99 | 0.41 | 0.51 | 3.43 |
